Test results as given in ChEMBL document CHEMBL1148225, “Discovery and SAR of trisubstituted thiazolidinones as CCR4 antagonists” (Bioorg Med Chem Lett, 2004).

Target: T1, C-C chemokine receptor type 4 (Homo sapiens, UniProt P51679)
T1 sequence (P51679 whole entry): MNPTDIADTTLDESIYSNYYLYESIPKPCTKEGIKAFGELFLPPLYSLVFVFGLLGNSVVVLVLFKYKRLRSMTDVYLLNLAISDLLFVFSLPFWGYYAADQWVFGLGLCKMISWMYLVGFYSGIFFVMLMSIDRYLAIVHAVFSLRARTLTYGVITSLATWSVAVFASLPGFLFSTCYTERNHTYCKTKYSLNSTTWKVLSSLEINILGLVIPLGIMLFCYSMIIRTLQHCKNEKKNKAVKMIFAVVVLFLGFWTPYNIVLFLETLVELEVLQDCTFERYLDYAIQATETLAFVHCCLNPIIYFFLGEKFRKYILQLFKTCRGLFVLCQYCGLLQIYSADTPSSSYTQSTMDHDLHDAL
Test: Inhibition of [125I]MDC binding to recombinant human C-C chemokine receptor type 4 (CCR4) expressed in murine pre-B cells
Type: cell-based

Row | IC50 [µM] | SMILES
1 | 0.11 | C[C@@H](NC(=O)C[C@H]1S[C@H](c2ccc(Cl)cc2Cl)N(CC(=O)NCCCN2CCCCC2)C1=O)c1cccc2ccccc12
2 | 2.3 | Cc1cccc(CNC(=O)C[C@H]2S[C@H](c3ccc(Cl)cc3Cl)N(CC(=O)NCCCN3CCOCC3)C2=O)c1
3 | 11 | Cc1ccccc1CNC(=O)C[C@H]1S[C@H](c2ccc(Cl)cc2Cl)N(CC(=O)NCCCN2CCOCC2)C1=O
4 | 21 | CC(C)(C)CCNC(=O)C[C@H]1S[C@H](c2ccc(Cl)cc2Cl)N(CC(=O)NCCCN2CCOCC2)C1=O
5 | 9 | NCCNC(=O)CCN1C(=O)[C@@H](CC(=O)NCc2cccc3ccccc23)S[C@@H]1c1ccc(Cl)cc1Cl
6 | 19 | CC(C)CCNC(=O)C[C@H]1S[C@H](c2ccc(Cl)cc2Cl)N(CC(=O)NCCCN2CCOCC2)C1=O
7 | 8 | C[C@@H](NC(=O)C[C@H]1S[C@H](c2ccc(Cl)cc2Cl)N(CC(=O)NCCCN2CCOCC2)C1=O)c1ccccc1 (stereo in doubt)
8 | 12 | O=C(C[C@H]1S[C@H](c2cc(Cl)ccc2Cl)N(CC(=O)NCCCN2CCOCC2)C1=O)NCc1cccc2ccccc12
9 | 10 | O=C(C[C@H]1S[C@H](c2ccc(Cl)cc2Cl)N(CC(=O)NCCCN2CCOCC2)C1=O)NCc1ccccc1Cl
10 | 1.4 | O=C(C[C@H]1S[C@H](c2ccc(Cl)cc2Cl)N(CC(=O)N2CCNCC2)C1=O)NCc1cccc2ccccc12
11 | 0.25 | C[C@@H](NC(=O)C[C@H]1S[C@H](c2ccc(Cl)cc2Cl)N(CC(=O)NCCCN2CCOCC2)C1=O)c1cccc2ccccc12
12 | 0.31 | O=C(C[C@H]1S[C@H](c2ccc(Cl)cc2Cl)N(CC(=O)NCCCN2CCCC2)C1=O)NCc1cccc2ccccc12
13 | 4 | O=C(C[C@H]1S[C@H](c2ccc(Cl)cc2Cl)N(CC(=O)NCCCN2CCOCC2)C1=O)NCc1cc(Cl)ccc1Cl
14 | 1 | O=C(C[C@H]1S[C@H](c2ccc(Cl)cc2Cl)N(CC(=O)NCCCN2CCOCC2)C1=O)NCc1cccc(C(F)(F)F)c1
15 | 66 | O=C(C[C@H]1S[C@H](c2ccsc2)N(CC(=O)NCCCN2CCOCC2)C1=O)NCc1cccc2ccccc12
16 | 7 | O=C(C[C@H]1S[C@H](c2cccc(Cl)c2)N(CC(=O)NCCCN2CCOCC2)C1=O)NCc1cccc2ccccc12
17 | 5.6 | CN(C)CCCN1C(=O)[C@@H](CC(=O)NCc2cccc3ccccc23)S[C@@H]1c1ccc(Cl)cc1Cl
18 | 2.5 | Cc1ccc(CNC(=O)C[C@H]2S[C@H](c3ccc(Cl)cc3Cl)N(CC(=O)NCCCN3CCOCC3)C2=O)n1C

Target: T2, C-C chemokine receptor type 4 (Homo sapiens) (UniProt P51679)
T2 sequence (whole entry): T1 sequence (P51679 whole entry)
Test: Dose required to inhibit TARC-stimulated chemotaxis in CCR4+ Th2 cell lines derived from primary human T-cells
Type: functional, cell-based

Row | ED50 [µM] | SMILES
19 | 0.3 | C[C@@H](NC(=O)C[C@H]1S[C@H](c2ccc(Cl)cc2Cl)N(CC(=O)NCCCN2CCCCC2)C1=O)c1cccc2ccccc12

Target: T1, C-C chemokine receptor type 4
Test: Inhibitory activity against [125I]MDC binding to human Chemokine receptor type 4 expressed in murine pre-B cells
Type: cell-based

Row | IC50 [µM] | SMILES
20 | > 100 | O=C(C[C@H]1S[C@H](c2ccc(C(F)(F)F)cc2C(F)(F)F)N(CC(=O)NCCCN2CCOCC2)C1=O)NCc1cccc2ccccc12
